Laboratory results published in patent US8586551B2, “18-membered macrocycles and analogs thereof” (Optimer Pharmaceuticals, Inc., priority 2005, dated 2013).
Read-outs that look alike come from different tables or passages of the source.

Tests used:
Type in all cases: cell-based
[1] = tested on: C. difficile clinical isolates; assay: MIC via agar dilution versus 110 clinical isolates of C. difficile
Fusobacterium nucleatum = assay: MIC against anaerobes: Fusobacterium nucleatum; conditions: Fusobacterium nucleatum (14)
Experimental: (§1) The in vitro activity of OPT-80 was determined against 350 anaerobes. The experimental procedure for which is outlined in Antimicrobial Agents and Chemotherapy, 2004, 48: 4430-4434, which is hereby incorporated by reference in its entirety.
(§2) All organisms, including the 21 C. difficile strains, were separate isolates and not clonally related. All quality-control gram-negative and -positive strains recommended by NCCLS were included with each run: in every case, results (where available) were in range.

Fusobacterium mortiferum = assay: MIC against anaerobes: Fusobacterium mortiferum; conditions: Fusobacterium mortiferum (10)
Experimental: as §1, §2

Finegoldia magna = assay: MIC against anaerobes: Finegoldia magna; conditions: Finegoldia magna (15)
[2] = tested on: Peptostreptococcus prevotii; assay: MIC against anaerobes: Peptostreptococcus prevotii; conditions: Peptostreptococcus prevotii (3)
Eggerthella lenta = assay: MIC against anaerobes: Eggerthella lenta; conditions: Eggerthella lenta (10)
[3] = tested on: Miscellaneous gram-positive non-spore-forming rods; assay: MIC against anaerobes: miscellaneous gram-positive non-spore-forming rods; conditions: Miscellaneous gram-positive non-spore-forming rods (20)
Clostridium species = assay: MIC against anaerobes: Clostridium species; conditions: Clostridium species (19)
Experimental: as §1, §2

[4] = tested on: Other anaerobic gram-negative rods; assay: MIC against intestinal bacteria: other anaerobic gram-negative rods
Clostridium bolteae = assay: MIC against intestinal bacteria: Clostridium bolteae; conditions: Clostridium bolteae (7)
Clostridium glycolicum = assay: MIC against intestinal bacteria: Clostridium glycolicum; conditions: Clostridium glycolicum (9)
[5] = tested on: Clostridium paraputrificum; assay: MIC against intestinal bacteria: Clostridium paraputrificum; conditions: Clostridium paraputrificum (8)
Clostridium ramosum = assay: MIC against intestinal bacteria: Clostridium ramosum
[6] = tested on: Anaerobic non-spore-forming gram-positive rods; assay: MIC against intestinal bacteria: anaerobic non-spore-forming gram-positive rods
[7] = tested on: Anaerobic gram-positive cocci; assay: MIC against intestinal bacteria: anaerobic gram-positive cocci; conditions: Anaerobic gram-positive cocci (49)
[8] = tested on: All anaerobic gram-positive species; assay: MIC against intestinal bacteria: all anaerobic gram-positive species
453 bacterial isolates = assay: MIC against intestinal bacteria: total for all strains

CCc1c(Cl)c(O)c(Cl)c(O)c1C(=O)O[C@H]1[C@H](O)[C@H](OC)[C@H](OCC2=CC=CC[C@H](O)C(C)=C[C@H](CC)[C@@H](O[C@@H]3OC(C)(C)[C@@H](OC(=O)C(C)C)[C@H](O)[C@@H]3O)C(C)=CC(C)=CC[C@@H]([C@@H](C)O)OC2=O)O[C@@H]1C [R-Tiacumicin B, 3-[[[6-Deoxy-4-O-(3,5-dichloro-2-ethyl-4,6-dihydroxybenzoyl)-2-O-methyl-β-D-mannopyranosyl]oxy]-methyl]-12(R)-[[6-deoxy-5-C-methyl-4-O-(2-methyl-1-oxopropyl)-β-D-lyxo-hexopyranosyl]oxy]-11(S)-ethyl-8(S)-hydroxy-18(S)-(1(R)-hydroxyethyl)-9,13,15-trimethyloxacyclooctadeca-3,5,9,13,15-pentaene-2-one]
0.06 µg/mL: MIC ([1]; Clostridioides difficile, isolate 65 5967, read-out: MIC) | MIC ([1]; Clostridioides difficile, isolate 77 6390, read-out: MIC) | MIC ([1]; Clostridioides difficile, isolate 82 6329, read-out: MIC) | MIC ([1]; Clostridioides difficile, isolate 83 6330, read-out: MIC) | MIC ([1]; Clostridioides difficile, isolate 85 6332, read-out: MIC) | MIC ([1]; Clostridioides difficile, isolate 96 6348, read-out: MIC) | MIC ([1]; Clostridioides difficile, isolate 103 6068, read-out: MIC) | MIC ([1]; Clostridioides difficile, isolate 107 6079, read-out: MIC) | MIC ([1]; Clostridioides difficile, isolate 112 6280, read-out: MIC) | MIC ([1]; Clostridioides difficile, isolate 113 6304, read-out: MIC) | MIC ([1]; Clostridioides difficile, isolate 114 386, read-out: MIC) | MIC ([1]; Clostridioides difficile, isolate 116 5702, read-out: MIC) | MIC ([1]; Clostridioides difficile, isolate 117 6026, read-out: MIC) | MIC ([1]; Clostridioides difficile, isolate 121 6072, read-out: MIC) | MIC ([1]; Clostridioides difficile, isolate AB2 1725, read-out: MIC) | MIC ([1]; Clostridioides difficile, isolate AC1 1546, read-out: MIC) | MIC ([1]; Clostridioides difficile, isolate AJ1 1557, read-out: MIC) | MIC ([1]; Clostridioides difficile, isolate AL1 1753, read-out: MIC) | MIC ([1]; Clostridioides difficile, isolate B1 832, read-out: MIC) | MIC ([1]; Clostridioides difficile, isolate BH1 4506, read-out: MIC) | MIC ([1]; Clostridioides difficile, isolate BM1 1453, read-out: MIC) | MIC ([1]; Clostridioides difficile, isolate BR1 1321, read-out: MIC) | MIC ([1]; Clostridioides difficile, isolate BT1 706, read-out: MIC) | MIC ([1]; Clostridioides difficile, isolate E1 816, read-out: MIC) | MIC ([1]; Clostridioides difficile, isolate J1 5971, read-out: MIC) | MIC ([1]; Clostridioides difficile, isolate J9 4478, read-out: MIC) | MIC ([1]; Clostridioides difficile, isolate O1 1861, read-out: MIC) | MIC ([1]; Clostridioides difficile, isolate Y1 5639, read-out: MIC) | MIC ([1]; Clostridioides difficile, isolate Y2 1459, read-out: MIC)
0.25 to 2.0 µg/mL: MIC range (Finegoldia magna)
<0.016 to 16 µg/mL: MIC range [3]
0.06 to 1024 µg/mL: MIC range ([4]; Other anaerobic gram-negative rods (51))
> 128 µg/mL: MIC50 (Fusobacterium nucleatum) | MIC90 (Fusobacterium nucleatum) | MIC50 (Fusobacterium mortiferum) | MIC90 (Fusobacterium mortiferum)
< 0.125 µg/mL: MIC50 [3]
< 0.016 µg/mL: MIC50 (Eggerthella lenta) | MIC50 (Clostridium species)
32 µg/mL: MIC90 [6]
64 µg/mL: MIC90 ([8]; All anaerobic gram-positive species (219))
< 0.03 µg/mL: MIC90 (Eggerthella lenta)
0.12 µg/mL: MIC50 [8]
8 µg/mL: MIC50 (453 bacterial isolates; Total for all strains (453))
<0.016 to 0.06 µg/mL: MIC range (Eggerthella lenta)
0.5 µg/mL: MIC50 [7]
0.25 to 1.0 µg/mL: MIC range [2]
1 µg/mL: MIC50 (Finegoldia magna) | MIC90 (Finegoldia magna) | MIC50 ([6]; Anaerobic non-spore-forming gram-positive rods (63))
0.06 to 8 µg/mL: MIC range [5]
512 µg/mL: MIC50 (Clostridium ramosum; Thomasclavelia ramosa) | MIC90 (Clostridium ramosum; Thomasclavelia ramosa, Clostridium ramosum (10))
2 µg/mL: MIC90 [7]
1 to 64 µg/mL: MIC range (Clostridium bolteae)
0.03 µg/mL: MIC ([1]; Clostridioides difficile, isolate 61 5930, read-out: MIC) | MIC ([1]; Clostridioides difficile, isolate 68 6368, read-out: MIC) | MIC ([1]; Clostridioides difficile, isolate 86 6333, read-out: MIC) | MIC ([1]; Clostridioides difficile, isolate 104 6060, read-out: MIC) | MIC ([1]; Clostridioides difficile, isolate 105 6071, read-out: MIC) | MIC ([1]; Clostridioides difficile, isolate 106 6078, read-out: MIC) | MIC ([1]; Clostridioides difficile, isolate 111 6279, read-out: MIC) | MIC ([1]; Clostridioides difficile, isolate 120 6057, read-out: MIC) | MIC ([1]; Clostridioides difficile, isolate D1 1360, read-out: MIC) | MIC ([1]; Clostridioides difficile, isolate J7 4224, read-out: MIC) | MIC ([1]; Clostridioides difficile, isolate Z1 3036, read-out: MIC) | MIC90 (Clostridium species)
0.125 µg/mL: MIC ([1]; Clostridioides difficile) | MIC ([1]; isolate 64 5940) | MIC ([1]; isolate 67 6367) | MIC ([1]; isolate 70 6376) | MIC ([1]; isolate 71 6379) | MIC ([1]; isolate 72 6380) | MIC ([1]; isolate 75 6388) | MIC ([1]; isolate 76 6389) | MIC ([1]; isolate 80 6327) | MIC ([1]; isolate 81 6328) | MIC ([1]; isolate 84 6331) | MIC ([1]; isolate 87 6334) | MIC ([1]; isolate 88 6335) | MIC ([1]; isolate 90 6338) | MIC ([1]; isolate 91 6339) | MIC ([1]; isolate 93 6341) | MIC ([1]; isolate 95 6347) | MIC ([1]; isolate 98 6350) | MIC ([1]; isolate 100 6353) | MIC ([1]; isolate A1 1535) | MIC ([1]; isolate AF1 1808) | MIC ([1]; isolate AG1 3044) | MIC ([1]; isolate AH1 3430) | MIC ([1]; isolate AN1 464) | MIC ([1]; isolate AO1 287) | MIC ([1]; isolate AS1 4099) | MIC ([1]; isolate AT1 1216) | MIC ([1]; isolate AW1 4501) | MIC ([1]; isolate BE1 4307) | MIC ([1]; isolate BI1 1675) | MIC ([1]; isolate BK1 4291) | MIC ([1]; isolate BL1 716) | MIC ([1]; isolate BN1 1322) | MIC ([1]; isolate BW1 3130) | MIC ([1]; isolate BX1 4271) | MIC ([1]; isolate CF1 5922) | MIC ([1]; isolate CG1 1566) | MIC ([1]; isolate CJ1 893) | MIC ([1]; isolate CP1 5491) | MIC ([1]; isolate F1 1015) | MIC ([1]; isolate G1 1077) | MIC ([1]; isolate I1 1389) | MIC ([1]; isolate K1 4305) | MIC ([1]; isolate K14 5780) | MIC ([1]; isolate L1 1423) | MIC ([1]; isolate N1 471) | MIC ([1]; isolate R1 397) | MIC ([1]; isolate V1 1521) | MIC ([1]; isolate W1 3931) | MIC ([1]; isolate X1 1890)
> 1020 µg/mL: MIC90 [4]
1020 µg/mL: MIC50 [4] | MIC90 (453 bacterial isolates)
256 to 512 µg/mL: MIC range (Clostridium ramosum; Clostridium ramosum (10))
16 µg/mL: MIC90 [3]
0.06 to 1 µg/mL: MIC range (Clostridium glycolicum)
